Data set [1] has as its system γδ T cells. To be noted: read-out: EC50 (γδ T cell stimulation), cited from earlier work.
The subject of data set [2] is K562 cells. The experiment in a line: K562 viability. The format is cell-based. The conditions noted are these: for IC50: read-out: Toxicity IC50 μM (95% CI); for direct toxicity (in words): K562 cells, 72 hours of exposure, doses of 100 μM or lower.
Data set [3] relates to γδ T cells. The experiment in a line: T cell proliferation: expansion of γδ T cells from human PBMCs, flow cytometry. In kind it is cell-based. The conditions noted are these: for EC50: Homo sapiens, T-cell. Background: A flow cytometer gives signals particle by particle.
In data set [4] the test system is γδ T cells. The format is cell-based. To be noted: Homo sapiens, K562, read-out: ELISA EC50 μM (95% CI).
The mark [5] stands for this setting: K562 leukemia cells, 72 hours exposure, n=3.
Where [6] appears, read: read-out: Proliferation EC50 μM (95% CI).

Data on eight compounds can be found in publication PMC8387413 (Bioorganic chemistry, 2021).

Where two headings read alike, the source gives them in different places. A value given as a limit tells only on which side of the number the result lay.

Regarding `C/C(=C\CCP(=O)(O)O)CO` [C-HMBP], the EC50 in data set [1] was about 4 µM.
Turning to `C/C(=C\CCP(=O)(O)Oc1ccc2ccc(=O)oc2c1)CO` [Compound 17], the IC50 in data set [2] (setting [5]) was over 100 µM.
For the compound `COP(=O)(CC/C=C(\C)CO)OCOC(=O)c1ccc(/N=N/c2ccc(N(C)C)cc2)cc1` (stereo not drawn) [Compound 14, ((((E)-5-Hydroxy-4-methylpent-3-en-1-yl)(methoxy)phosphoryl)oxy)methyl 4-((E)-(4-(dimethylamino)phenyl)diazenyl)benzoate], the EC50 worked out at 0.11 µM in data set [3] (read-out: EC50 for stimulation of γδ T cells), 0.099 µM in data set [3] (setting [6]) and 0.11 µM in data set [4]. Moreover, the IC50 in data set [2] (Homo sapiens, K562, 72 h) turned out to be 36 µM. Moreover, the “direct toxicity (in words)” value in data set [2] was “toxic at 100 μM”.
With `COc1ccc2cc(C(=O)NCCc3ccc(OP(=O)(CC/C=C(\C)COC(C)=O)OCOC(=O)c4ccc(/N=N/c5ccc(N(C)C)cc5)cc4)cc3)c(=O)oc2c1` (stereo not drawn) [Compound 23], the IC50 in data set [2] (setting [5]) is over 100 µM.
`C/C(=C\COP(=O)(O)OP(=O)(O)O)CO` [HMBPP, (E)-4-hydroxy-3-methyl-but-2-enyl diphosphate]: in data set [1] (in our assays), the EC50 was about 0.0005 µM.
For `C/C(=C\CCP(=O)(OCOC(=O)c1ccc(/N=N/c2ccc(N(C)C)cc2)cc1)Oc1ccc2ccc(=O)oc2c1)CO` (stereo not drawn) [Compound 18, ((((E)-5-Hydroxy-4-methylpent-3-en-1-yl) ((2-oxo-2H-chromen-7-yl)oxy)phosphoryl)oxy)methyl 4-((E)-(4-(dimethylamino)phenyl)diazenyl)benzoate], the EC50 was found to be 0.0005 µM in data set [3] (setting [6]) and 0.0075 µM in data set [4]. Also, the IC50 in data set [2] (Homo sapiens, K562, 72 h) is 27 µM. Further, the “direct toxicity (in words)” value in data set [2] was “toxic at 100 μM”.
For `COP(=O)(CC/C=C(\C)CO)Oc1ccc2ccc(=O)oc2c1` (stereo not drawn) [Compound 16, (E)-Methyl (2-oxo-2H-chromen-7-yl)(5-hydroxy-4-methylpent-3-en-1-yl)phosphonate], the half-maximal inhibitory concentration (IC50) in data set [2] (setting [5]) is over 100 µM.
Regarding `COc1ccc2cc(C(=O)NCCc3ccc(OP(=O)(CC/C=C(\C)COC(C)=O)OC)cc3)c(=O)oc2c1` (stereo not drawn) [Compound 22, (E)-5-(Methoxy(4-(2-(7-methoxy-2-oxo-2H-chromene-3-carboxamido)ethyl)phenoxy)phosphoryl) -2-methylpent-2-en-1-yl acetate], the results for the EC50 in data set [3] (setting [6]) and in data set [4] were 5.8 µM and over 10 µM, respectively. The “stimulation of proliferation (in words)” value in data set [3] (γδ T cells from human PBMCs) is listed as “did not indicate substantial stimulation of proliferation”. The IC50 in data set [2] (Homo sapiens, K562, 72 h) is over 100 µM.

As a reminder, the IC50 is the concentration that inhibits the measured activity by half.
